Like-named read-outs stand apart in the source and are kept apart here.
Legend:
[1] = system: H460 cell line; assay: Anti-proliferation assay, hypoxia vs normoxia (Table 1A); conditions: for IC50: Homo sapiens; for HCR P: ratio of IC50 in normoxia and hypoxia
[2] = MTD (Table 2B); conditions: in vivo
[3] = system: MES-SA/Dx5 cells; assay: Antiproliferation assay (Alamar Blue), anoxia vs air; conditions: Homo sapiens, MES-SA/Dx5, 2 h
[4] = system: HT29 cells; assay: as above; conditions: Homo sapiens, HT-29, 2 h
[5] = system: DX-5; assay: Anti-proliferation assay, hypoxia vs normoxia (Table 1B)
[6] = system: HT29; assay: as above; conditions: for IC50: Homo sapiens
[7] = system: NCI-H460 cells; assay: Antiproliferation assay (Alamar Blue), anoxia vs air; conditions: Homo sapiens, NCI-H460, 2 h
[8] = system: mouse (MLM) liver microsomal proteins; type: in vitro ADME; conditions: for Metabolic stability (MLM) (% at 30 min): Table 2B
[9] = Plasma stability (Table 2B); conditions: 30 min
[10] = in vivo
[11] = system: MES-SA cells; assay: Antiproliferation assay (Alamar Blue), anoxia vs air; conditions: Homo sapiens, 2 h
[12] = logP (partitioning between octanol and water); type: physicochemical; conditions: logP
Source text: As used herein “LogP” means a measure of lipophilicity of a substance determined based on the partitioning of the substance betwen octanol and water.

[13] = system: NCI-H460 cells; assay: Antiproliferation assay - oxygen dependence; type: cell-based, human; conditions: Homo sapiens
Source text: . […] The calculated IC50 values (μM) are tabulated in Table Y1 (H460 cells) or Table Y2 (HT29 cells) below.

[14] = system: NCI-H460 cells; assay: Clonogenic assay - oxygen dependence; conditions: Homo sapiens
[15] = type: physicochemical; conditions: glassy carbon, Ag/AgCl reference
[16] = system: H460 lung carcinoma spheroids; assay: Spheroid model, clonogenic survival; conditions: Homo sapiens, NCI-H460, 2 h, read-out: IC90 H460 Spheroid 10% O2
[17] = system: NCI H460 xenograft; type: in vivo, mouse; conditions: day 27, vs vehicle
Source text: Comparisons were made on day 27 because that was the last day of measurements for the vehicle group and those animals were sacrificed.

[18] = system: H460 cells exposed as monolayers; assay: Clonogenic survival of monolayer cells (Example 35); conditions: Homo sapiens, NCI-H460, 2 h
[19] = in vivo; conditions: CD-1, mouse, ip, 50 mg/kg
[20] = system: HT29 xenograft; assay: HT-29 human colon carcinoma xenograft mouse model (Example 50); type: in vivo
Description: Female CB17/SCID mice (purchased from Charles River, Cambridge, Mass.), 7-8 weeks of age, were allowed to acclimatize for at least three days, and handled under pathogen-free conditions. Human colon carcinoma cell line HT29 was obtained from the American Type Culture Collection. The cell lines were cultured and harvested as described in Example 47 above, and inoculated at 3×10^6 cells/animal in the peritoneal subcutaneous space. […]; in saline) on the days the combination therapy was scheduled; 5FU alone (in saline), or CDDP alone.
In control groups, tumors were implanted in two locations as part of a separate study of effect of location on control group tumor growth. […] The body weight and tumor volume were measured as described in Example 47. Tumor growth inhibition measured on day 25 when vehicle tumors had reached the maximal size and animals in that group were sacrificed is tabulated below.

[21] = system: NCI H460 xenograft; assay: NCI H460 non small cell lung carcinoma xenograft mouse model (Example 48); type: in vivo; conditions: Group 6: Taxol (q2d × 3)/week × 2 weeks; day 29; vs vehicle
Description: Female CB17/SCID mice (purchased from Charles River, Cambridge, Mass.), 7-8 weeks of age, were allowed to acclimatize for at least three days, and handled under pathogen-free conditions. Human […] cell line NCI H460 was obtained from the American Type Culture Collection. The cell lines were cultured and harvested according to the procedure described in Example 47 and inoculated at 1×10^6 cells/animal in the peritoneal subcutaneous space. When the tumors grew to an average volume of 100 mm^3 (day 8), […], as tabulated in the table below: Compound 25 (2.5 mg/ml in 10% PEG; administration route—i.p.) and Taxol (1 mg/ml in 5% EtOH, 5% Cremophor and 90% saline; administration—i.v. 2 h after administration of Compound 25). The body weight and tumor volumes were measured as described in Example 47 above.
Results are presented in Table X2 based on tumor volume measurement on day 29 when vehicle treated mice had reached a volume of 946 mm^3. Groups of 5 mice receiving saline or no treatment were added in order to indicate any vehicle effects but are not used for comparisons in this analysis.

[22] = system: rat (RLM) liver microsomal proteins; assay: Metabolic stability in liver microsomal protein; type: in vitro ADME; conditions: 5 μM
[23] = system: human (HLM) liver microsomal proteins; assay: Metabolic stability in liver microsomal protein; type: in vitro ADME; conditions: Table 2A, second study, 5 μM
[24] = NCI-H460, read-out: Hypoxia P (proliferation IC50)
[25] = NCI-H460, read-out: Normoxia P (proliferation IC50)
[26] = read-out: IC50 MES-SA/Dx5 Anoxia
[27] = read-out: DX-5 P H (proliferation IC50, hypoxia)
[28] = read-out: DX-5 P N (proliferation IC50, normoxic)
[29] = HT-29, read-out: HT29 P H (proliferation IC50, hypoxia)
[30] = HT-29, read-out: HT29 P N (proliferation IC50, normoxic)
[31] = read-out: IC50 H460 Air, air, 2 h exposure
[32] = read-out: IC50 H460 Anoxia, anoxia, 2 h exposure

Cn1c(COP(=O)(N(CCCl)CCCl)N(CCCl)CCCl)cnc1[N+](=O)[O-] [Compound 6]
IC50 [1, 24]: 700 nM | IC50 [1, 25]: > 100000 nM | HCR P [1]: >140 | MTD [2]: 250 mg/kg | IC50 ([3]; read-out: IC50 MES-SA/Dx5 Air): > 100000 nM | IC50 [3, 26]: 5000 nM | IC50 ([4]; read-out: IC50 HT29 Air): > 100 µM | IC50 ([4]; read-out: IC50 HT29 Anoxia): 22 µM | DX-5 HCR [5]: >20 | IC50 [5, 27]: 5 µM | IC50 [5, 28]: > 100 µM | HT29 HCR P [6]: >2 | IC50 [6, 29]: 55 µM | IC50 [6, 30]: > 100 µM | IC50 [7, 31]: > 100000 nM | IC50 [7, 32]: 700 nM | Metabolic stability (MLM) (% at 30 min) [8]: 0% | Plasma stability (% at 30 min) [9]: 60%

Cn1c(COP(=O)(N(CCCl)C2CC2)N(CCCl)C2CC2)cnc1[N+](=O)[O-] [Compound 7]
IC50 [1, 24]: 140 nM | IC50 [1, 25]: 25000 nM | HCR P [1]: 180 | IC50 ([3]; read-out: IC50 MES-SA/Dx5 Air): 83000 nM | IC50 [3, 26]: 590 nM | IC50 ([4]; read-out: IC50 HT29 Air): > 100 µM | IC50 ([4]; read-out: IC50 HT29 Anoxia): 7 µM | DX-5 HCR [5]: 140 | IC50 [5, 27]: 0.6 µM | IC50 [5, 28]: 83 µM | HT29 HCR P [6]: >5 | IC50 [6, 29]: 7 µM | IC50 ([6]; HT-29, read-out: HT29 P H, value in parentheses): 100 µM | IC50 [6, 30]: > 100 µM | HT29 HCR P, value in parentheses ([6]; parentheses not explained): (1) | MTD [10]: 250 mg/kg | IC50 [7, 31]: 25000 nM | IC50 [7, 32]: 140 nM | Metabolic stability (MLM) (% at 30 min) [8]: 0% | Plasma stability (% at 30 min) [9]: 85%

O=[N+]([O-])c1ccc(COP(=O)(NCCBr)NCCBr)o1 [Compound 24]
IC50 ([11]; read-out: IC50 MES-SA Air): 2000 nM | IC50 ([11]; read-out: IC50 MES-SA Anoxia): 100 nM | IC50 [1, 24]: 10 nM | IC50 ([1]; NCI-H460, read-out: IC50 in cells under hypoxia): 50 nM | IC50 [1, 25]: 4000 nM | fold more toxic in hypoxic cells than in normoxic cells ([1]; anti-proliferation cytotoxicity assay): 400 fold | HCR P [1]: 400 | IC50 ([3]; read-out: IC50 MES-SA/Dx5 Air): 800 nM | IC50 [3, 26]: 100 nM | logP [12]: < 0 | IC50 ([13]; NCI-H460, read-out: IC50 in H460 cells, 0.6% O2): 850 nM | IC50 ([13]; NCI-H460, read-out: IC50 in H460 cells, Air): > 1000 nM | IC50 ([13]; NCI-H460, read-out: IC50 in H460 cells, N2): 7 nM | IC90 ([14]; NCI-H460, read-out: IC90 H460 0.6% O2): 250 nM | IC90 ([14]; NCI-H460, read-out: IC90 H460 Air): 14000 nM | IC90 ([14]; NCI-H460, read-out: IC90 H460 N2): 70 nM | Reduction Potentials, 100 mV/sec ([15]; scan rate 100 mV/sec): −568 mV | Reduction Potentials, 10,000 mV/sec ([15]; scan rate 10,000 mV/sec): −636 mV | IC90 [16]: 3000 nM | % Inhibition vs Group 1 ([17]; Group 3: Compound 24 3 mg/kg (q1d × 5 d)/week × 3 week): 39.9% | IC50 [7, 31]: 4000 nM | IC50 [7, 32]: 10 nM | IC90 ([18]; read-out: IC90 H460 Monolayer 0.6% O2): 250 nM | IC90 ([18]; read-out: IC90 H460 Monolayer Air): 4000 nM | IC90 ([18]; read-out: IC90 H460 Monolayer N2): 70 nM | AUC [19]: 64000 ng·h/mL | Cmax [19]: 7600 ng/mL | Tmax [19]: 5 min | half-life [19]: 4.1 min | tumor growth inhibition, monotherapy [20]: more than 40% | body weight ([20]; during treatment, recovered after end of treatment): minor decreases in weights

CC(=O)O[C@H]1C(=O)[C@@]2(C)[C@H]([C@H](OC(=O)c3ccccc3)[C@]3(O)C[C@H](OC(=O)[C@H](O)[C@@H](NC(=O)c4ccccc4)c4ccccc4)C(C)=C1C3(C)C)[C@]1(OC(C)=O)CO[C@@H]1C[C@@H]2O [Taxol, paclitaxel, reference compound]
% Inhibition vs Group 2 [21]: 46% | % Inhibition vs Group 1 ([17]; Group 2: Taxol 10 mg/kg (q2d × 3)/week × 2 week): 36.7%

C[C@]12CC[C@H]3[C@@H](CCC4=CC(=O)CC[C@@]43C)[C@@H]1CC[C@@H]2O [Testosterone, reference compound]
Metabolic stability (% at 30 min) RLM ([22]; Table 1, first study): 0% | Metabolic stability (% at 30 min) RLM ([22]; Table 2A, second study): 33% | Metabolic stability (% at 30 min) MLM ([8]; Table 1, first study, 5 μM): 6% | Metabolic stability (% at 30 min) HLM [23]: 65%

— US8507464B2, “Phosphoramidate alkylator prodrugs” (Threshold Pharmaceuticals, Inc., priority 2005, dated 2013)
